The target in series [1] is T1, Electrophorus electricus AChE (Electrophorus electricus, UniProt O42275).
T1 construct: purchased Sigma-Aldrich C2888
The series is described as follows: AChE inhibition, electric eel enzyme (Ellman method). The series is classed as biochemical. Conditions: for AChE inhibition (in words), electric eel: concentration–response curves. On the technique in general: DTNB colorimetry detects thiols as they appear.

Series [2] deals with T2, human blood AChE (Homo sapiens, UniProt P22303).
T2 construct: 90 µL undiluted blood in a 48-wells plate; from tissue; host or cells: venous EDTA whole blood from healthy human donors, lysed and diluted in Triton X-100 buffer
The series is described as follows: AChE inhibition in human donor whole blood (Ellman method). In kind it is biochemical. The settings on record: for IC50: IC50 Human, whole blood, average of 20 donors; for AChE inhibition (in words), human blood: concentration–response curves.

For series [3], the system named is electric eel AChE. The settings on record: cited from earlier work.
Series [4] has as its system human AChE (blood). Conditions: source: blood; ref Das et al. ([2006]); cited from earlier work.
The test system of series [5] is human AChE (red blood cells). Conditions: source: red blood cells; ref Ajilore et al. [2018]; cited from earlier work.
For series [6] the following is noted: measured or estimated in plasma following human exposure, cited from earlier work.
For series [7], the target named is human AChE (recombinant enzyme). The settings on record: source: recombinant enzyme; ref Li et al. ([2019]); cited from earlier work.
Series [8] relates to human AChE (neocortex). The settings on record: source: neocortex; ref Jackisch et al. [2009]; cited from earlier work.

Entries after “also recorded” stand apart in the source; their conditions may differ. Read-outs that look alike come from different tables or passages of the source.

T1 sequence (O42275 24-633): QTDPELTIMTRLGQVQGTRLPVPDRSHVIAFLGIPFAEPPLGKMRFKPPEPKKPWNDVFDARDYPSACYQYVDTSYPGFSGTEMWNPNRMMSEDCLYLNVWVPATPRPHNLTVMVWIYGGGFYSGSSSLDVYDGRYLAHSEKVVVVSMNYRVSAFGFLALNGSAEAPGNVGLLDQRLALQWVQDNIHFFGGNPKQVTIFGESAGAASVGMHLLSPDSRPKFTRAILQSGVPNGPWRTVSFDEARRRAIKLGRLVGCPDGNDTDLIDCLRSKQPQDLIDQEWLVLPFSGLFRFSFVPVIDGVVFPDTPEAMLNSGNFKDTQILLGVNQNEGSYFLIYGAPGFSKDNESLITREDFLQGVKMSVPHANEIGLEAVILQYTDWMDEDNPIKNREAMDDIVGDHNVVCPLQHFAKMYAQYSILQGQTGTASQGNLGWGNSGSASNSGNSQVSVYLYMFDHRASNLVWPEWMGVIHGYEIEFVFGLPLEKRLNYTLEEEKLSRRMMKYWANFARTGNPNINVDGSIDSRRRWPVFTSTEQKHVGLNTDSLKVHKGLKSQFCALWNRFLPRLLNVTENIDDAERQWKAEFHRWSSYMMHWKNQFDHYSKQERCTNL
T2 sequence (P22303 32-617 isoform P22303-2 limits assumed): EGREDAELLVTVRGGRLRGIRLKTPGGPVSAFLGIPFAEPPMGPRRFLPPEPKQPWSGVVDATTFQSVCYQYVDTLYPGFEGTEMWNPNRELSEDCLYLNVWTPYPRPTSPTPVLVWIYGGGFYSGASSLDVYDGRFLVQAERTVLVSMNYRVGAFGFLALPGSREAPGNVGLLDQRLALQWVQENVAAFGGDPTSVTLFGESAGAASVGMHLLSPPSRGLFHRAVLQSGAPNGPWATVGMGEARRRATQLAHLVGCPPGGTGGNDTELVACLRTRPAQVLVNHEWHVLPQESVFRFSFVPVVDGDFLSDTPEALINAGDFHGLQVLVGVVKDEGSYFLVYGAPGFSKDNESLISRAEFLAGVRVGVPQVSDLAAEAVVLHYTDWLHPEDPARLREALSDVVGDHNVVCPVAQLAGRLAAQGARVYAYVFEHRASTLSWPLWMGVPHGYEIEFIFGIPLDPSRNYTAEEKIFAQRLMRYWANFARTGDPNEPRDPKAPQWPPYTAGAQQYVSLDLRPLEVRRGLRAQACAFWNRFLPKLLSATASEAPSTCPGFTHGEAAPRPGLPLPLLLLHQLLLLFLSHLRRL

In the case of `CCOP(=S)(OCC)Oc1nc(Cl)c(Cl)cc1Cl` [CPF, Chlorpyrifos], the concentration for half-maximal inhibition (IC50) (as a rule, the concentration that gives 50% inhibition) in series [1] was over 0.35 µM; in series [2], over 10 µM; in series [3] (ref Assis et al. ([2012])), 0.03 µM; in series [3] (ref Čolović et al. ([2011])), 4.5 µM; in series [4], 0.12 µM; in series [5], 200 µM. For the same compound, the “AChE inhibition (in words), electric eel” value was “do not show any AChE inhibition; also recorded: did not inhibit AChE” in series [1] and “did not show inhibition” in series [1] (listed as chlorpyrifos). For the same compound, the “AChE inhibition (in words), human blood” value in series [2] is “do not inhibit AChE activity; also recorded: do not show any AChE inhibition; also recorded: did not inhibit AChE”; in series [2] (listed as chlorpyrifos), “did not show inhibition”. The values for the In vivo concentration in series [6] (ref Buratti et al. ([2003])), in series [6] (ref Eyer et al. ([2009])) and in series [6] (ref Huen et al. ([2012])) were at most 10 µM, at most 5 µM and at most 5 µM, respectively.

For the compound `CCOP(=S)(OCC)Oc1cc(C)nc(C(C)C)n1` [DZN, diazinon], the concentration for half-maximal inhibition (IC50) was over 8.5 µM in series [1]; over 10 µM in series [2]; 0.3 µM in series [3] (ref Assis et al. ([2012])); over 200 µM in series [3] (ref Čolović et al. ([2011])); 38 µM in series [7]. For the same compound, the “AChE inhibition (in words), electric eel” value is “do not show any AChE inhibition; also recorded: did not inhibit AChE” in series [1] and “did not show inhibition” in series [1] (listed as diazinon). The “AChE inhibition (in words), human blood” value in series [2] is given as “do not inhibit AChE activity; also recorded: do not show any AChE inhibition; also recorded: did not inhibit AChE”; in series [2] (listed as diazinon), “did not show inhibition”. The In vivo concentration in series [6] (ref Buratti et al. ([2003])) is given as at most 10 µM.

On to `CCN(C)C(=O)Oc1cccc([C@H](C)N(C)C)c1` [RI, rivastigmine], for which the IC20 (usually the point of the concentration-response curve where the effect stands at 20%) in series [1] (30 min exposure, room temperature) worked out at 16 µM. Besides, the “AChE inhibition (in words), electric eel” value in series [1] was “show inhibition of AChE”. Further, the IC50 was […] in series [3] (ref Imramovsky et al. [2012]), […] in series [3] (ref Kratky et al. [2018]) and […] in series [8]. Further, the results for the In vivo concentration in series [6] (ref Hossain et al. ([2002])) and in series [6] (ref Lefèvre et al. ([2016])) were […] and […], respectively.

The values are drawn from PMC7655571, “Acetylcholinesterase inhibition in electric eel and human donor blood: an in vitro approach to investigate interspecies differences and human variability in toxicodynamics” (Archives of Toxicology, 2020).
